Source: patent US8962641B2, “Pyrimidine-substituted pyrrolidine derivatives, pharmaceutical compositions and uses thereof” (Boehringer Ingelheim International GmbH, priority 2013, dated 2015)

Biological target: human ACC2 (Homo sapiens (Human), UniProt O00763)
Assay: ACC2 assay (spectrophotometric 384 well assay, NADH-linked kinetic method)
Assay type: biochemical
Conditions: hACC2 construct lacking 128 N-terminal amino acids; coupled lactate dehydrogenase/pyruvate kinase reaction, 340 nm, 25° C.
How it was run: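 Baculovirus/insect-cell human ACC2, anion-exchange purified; ADP formation coupled to pyruvate kinase/lactate dehydrogenase, NADH loss followed at 340 nm, 25° C, 15 min. Final 200 μM NADH and acetyl-CoA, 500 uM ATP; vehicle and no-acetyl-CoA wells set 100% and 0%.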

Sequence of human ACC2 (O00763 129-2458): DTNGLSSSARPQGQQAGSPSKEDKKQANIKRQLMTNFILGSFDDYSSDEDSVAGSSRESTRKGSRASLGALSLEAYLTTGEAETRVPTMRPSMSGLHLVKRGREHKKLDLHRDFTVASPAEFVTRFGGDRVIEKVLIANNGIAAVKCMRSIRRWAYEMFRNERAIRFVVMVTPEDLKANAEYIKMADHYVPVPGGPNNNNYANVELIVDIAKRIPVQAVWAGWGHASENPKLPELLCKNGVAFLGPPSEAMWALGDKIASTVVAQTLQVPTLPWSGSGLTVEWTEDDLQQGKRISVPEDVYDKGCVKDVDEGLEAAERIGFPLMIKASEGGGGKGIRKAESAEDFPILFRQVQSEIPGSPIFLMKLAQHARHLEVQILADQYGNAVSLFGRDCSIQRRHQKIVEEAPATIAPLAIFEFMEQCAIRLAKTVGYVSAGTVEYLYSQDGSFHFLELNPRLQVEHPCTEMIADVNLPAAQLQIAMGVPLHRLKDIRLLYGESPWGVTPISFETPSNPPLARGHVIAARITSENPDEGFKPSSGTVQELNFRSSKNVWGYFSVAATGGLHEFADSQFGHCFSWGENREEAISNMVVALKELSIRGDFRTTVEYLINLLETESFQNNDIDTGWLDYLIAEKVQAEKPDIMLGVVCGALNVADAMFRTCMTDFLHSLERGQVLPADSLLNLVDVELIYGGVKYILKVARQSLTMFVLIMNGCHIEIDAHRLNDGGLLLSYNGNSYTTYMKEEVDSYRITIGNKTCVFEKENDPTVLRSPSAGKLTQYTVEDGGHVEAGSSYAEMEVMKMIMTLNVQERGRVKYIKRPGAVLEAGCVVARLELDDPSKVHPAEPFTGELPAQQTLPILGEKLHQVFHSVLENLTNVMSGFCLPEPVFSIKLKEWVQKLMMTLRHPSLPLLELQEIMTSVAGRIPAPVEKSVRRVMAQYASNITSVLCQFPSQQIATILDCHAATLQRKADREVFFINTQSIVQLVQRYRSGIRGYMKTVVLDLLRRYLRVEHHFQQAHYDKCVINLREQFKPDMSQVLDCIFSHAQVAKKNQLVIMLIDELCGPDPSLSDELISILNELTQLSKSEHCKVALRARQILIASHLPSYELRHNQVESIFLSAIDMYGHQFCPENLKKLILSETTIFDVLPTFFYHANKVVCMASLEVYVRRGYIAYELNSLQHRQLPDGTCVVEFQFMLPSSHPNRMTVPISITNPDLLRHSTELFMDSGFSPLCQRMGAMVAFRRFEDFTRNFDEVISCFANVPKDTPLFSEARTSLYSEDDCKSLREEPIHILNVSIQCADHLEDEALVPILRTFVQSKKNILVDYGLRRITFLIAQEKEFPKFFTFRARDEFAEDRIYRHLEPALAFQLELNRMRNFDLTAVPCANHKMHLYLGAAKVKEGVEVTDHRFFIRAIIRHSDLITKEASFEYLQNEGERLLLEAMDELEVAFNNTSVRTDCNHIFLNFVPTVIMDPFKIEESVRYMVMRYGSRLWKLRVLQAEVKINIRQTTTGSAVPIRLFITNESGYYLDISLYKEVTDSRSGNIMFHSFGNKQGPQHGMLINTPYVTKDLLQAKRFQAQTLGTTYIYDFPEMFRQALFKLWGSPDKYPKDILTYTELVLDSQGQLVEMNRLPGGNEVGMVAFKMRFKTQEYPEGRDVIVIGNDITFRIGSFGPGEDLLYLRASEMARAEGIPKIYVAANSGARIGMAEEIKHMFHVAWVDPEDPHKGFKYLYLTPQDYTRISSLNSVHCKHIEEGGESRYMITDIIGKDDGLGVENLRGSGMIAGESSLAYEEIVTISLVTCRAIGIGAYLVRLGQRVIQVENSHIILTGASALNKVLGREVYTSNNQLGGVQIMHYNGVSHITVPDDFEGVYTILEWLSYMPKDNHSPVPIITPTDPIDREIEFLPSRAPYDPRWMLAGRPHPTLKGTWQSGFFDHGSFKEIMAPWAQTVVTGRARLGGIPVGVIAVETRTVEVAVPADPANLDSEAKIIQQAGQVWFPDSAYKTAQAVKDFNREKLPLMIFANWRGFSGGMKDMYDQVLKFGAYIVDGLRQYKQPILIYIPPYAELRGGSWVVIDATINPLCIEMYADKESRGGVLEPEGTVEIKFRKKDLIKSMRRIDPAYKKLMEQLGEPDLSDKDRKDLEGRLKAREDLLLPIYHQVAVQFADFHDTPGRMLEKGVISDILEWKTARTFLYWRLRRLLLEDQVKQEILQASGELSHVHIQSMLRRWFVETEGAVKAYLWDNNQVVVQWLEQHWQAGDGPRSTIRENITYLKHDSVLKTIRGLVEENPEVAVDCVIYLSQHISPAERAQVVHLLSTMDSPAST

| IC50 | SMILES |
| --- | --- |
| 1350 nM | CC(=O)N[C@@H](C)c1ccc(O[C@@H]2CCN(c3nc(N4CCC(C)(O)CC4)ncc3F)C2)cc1 [Example 8.273] |
| 355 nM | CC(=O)N[C@@H](C)c1ccc(O[C@@H]2CCN(c3nc(N4CC(C)C4)ncc3Cl)C2)cc1 [Example 8.219] |
| 67 nM | CC(=O)N[C@@H](C)c1ccc(O[C@@H]2CCN(c3ncnc(N4CCCC4)c3F)C2)cc1 [Example 8.129] |
| 680 nM | CC(=O)N[C@@H](C)c1ccc(O[C@@H]2CCN(c3ccnc(N4CCc5nocc5C4)n3)C2)cc1 [Example 8.246] |
| 52 nM | CC(=O)N[C@@H](C)c1ccc(O[C@@H]2CCN(c3ncnc(N4CC[C@@H](C)C4)c3F)C2)cc1 [Example 8.294] |
| 70 nM | CC(=O)N[C@@H](C)c1ccc(O[C@@H]2CCN(c3nc(N(C)CC(F)F)ncc3Cl)C2)cc1 [Example 8.136] |
| 937 nM | CC(=O)N[C@@H](C)c1ccc(O[C@@H]2CCN(c3nc(N4CC[C@H](O)C4)ncc3F)C2)cc1 [Example 8.245] |
| 208 nM | COCCN(C)c1ncnc(N2CC[C@@H](Oc3ccc([C@H](C)NC(C)=O)cc3)C2)c1F [Example 8.134] |
| 69 nM | CCN(CC)c1ncc(F)c(N2CC[C@@H](Oc3ccc([C@H](C)NC(C)=O)cc3)C2)n1 [Example 8.26] |
| 199 nM | COC[C@@H](C)N(C)c1ncc(Cl)c(N2CC[C@@H](Oc3ccc([C@H](C)NC(C)=O)cc3)C2)n1 [Example 8.225] |
| 111 nM | CC(=O)N[C@@H](C)c1ccc(O[C@@H]2CCN(c3nc(N(C)C4CCCC4)ncc3Cl)C2)cc1 [Example 8.124] |
| 157 nM | CC(=O)N[C@@H](C)c1ccc(O[C@@H]2CCN(c3nc(N4CCCC4)ncc3Cl)C2)cc1 [Example 8.50] |
| 140 nM | CC(=O)N[C@@H](C)c1ccc(O[C@@H]2CCN(c3nc(N4CCCC(F)(F)C4)ncc3F)C2)cc1 [Example 8.218] |
| 2460 nM | CCNc1ncnc(N2CC[C@@H](Oc3ccc([C@H](C)NC(C)=O)cc3)C2)c1F [Example 8.118] |
| 387 nM | CCN(CCC#N)c1ncc(Cl)c(N2CC[C@@H](Oc3ccc([C@H](C)NC(C)=O)cc3)C2)n1 [Example 8.149] |
| 185 nM | CC(=O)N[C@@H](C)c1ccc(O[C@@H]2CCN(c3ccnc(N(C)Cc4ccccc4)n3)C2)cc1 [Example 8.23] |
| 469 nM | CC(=O)N[C@@H](C)c1ccc(O[C@@H]2CCN(c3cc(N4CCOCC4C)ncn3)C2)cc1 (stereo partly drawn) [Example 8.163] |
| 50 nM | CC(=O)N[C@@H](C)c1ccc(O[C@@H]2CCN(c3ncnc(N4CC[C@H](C)C4)c3F)C2)cc1 [Example 8.293] |
| 294 nM | CC(=O)N[C@@H](C)c1ccc(O[C@@H]2CCN(c3ccnc(N(C)C(C)C)n3)C2)cc1 [Example 8.25] |
| 531 nM | CC(=O)N[C@@H](C)c1ccc(O[C@@H]2CCN(c3nc(N4CC[C@@H](F)C4)ncc3F)C2)cc1 [Example 8.181] |
| 376 nM | CCN(C)c1ncnc(N2CC[C@@H](Oc3ccc([C@H](C)NC(C)=O)cc3)C2)c1C [Example 8.101] |
| 234 nM | CC(=O)N[C@@H](C)c1ccc(O[C@@H]2CCN(c3ccnc(N(CCC#N)CC4CCCO4)n3)C2)cc1 (stereo partly drawn) [Example 8.110] |

Further lines, the molecule ahead of its results:

| SMILES | IC50 |
| --- | --- |
| CCCOc1ccnc(N2CC[C@@H](Oc3ccc([C@H](C)NC(C)=O)cc3)C2)n1 [Example 7.8] | 2090 nM |
| COc1c(OCC2CC2)ncnc1N1CC[C@@H](Oc2ccc([C@H](C)NC(=O)c3cnco3)cc2)C1 [Example 2.27] | 103 nM |
| C[C@H](NC(=O)N(C)C)c1ccc(OC2CCN(c3ncnc(OCC4CC4)c3F)C2)cc1 (stereo partly drawn) [Example 3.10] | 45 nM |
| C[C@H](NC(=O)N(C)C)c1ccc(OC2CCN(c3ncnc(OCC(C)(C)O)c3F)C2)cc1 (stereo partly drawn) [Example 3.15] | 278 nM |
| CC(=O)N[C@@H](C)c1ccc(O[C@@H]2CCN(c3ncnc(OCC(C)(C)O)c3F)C2)cc1 [Example 7.32] | 145 nM |
| CC(=O)N[C@@H](C)c1ccc(O[C@@H]2CCN(c3ncc(C4CC4)cn3)C2)cc1 [Example 6.4] | 1910 nM |
| CC(=O)N[C@@H](C)c1ccc(O[C@@H]2CCN(c3ncc(OCC4CC4)cn3)C2)cc1 [Example 6.7] | 1080 nM |
| CC(=O)N[C@@H](C)c1ccc(O[C@@H]2CCN(c3ncnc(OC[C@@H]4CC4(F)F)c3F)C2)cc1 [Example 7.48] | 87 nM |
| C[C@H](NC(=O)N1CCC1)c1ccc(OC2CCN(c3ccnc(N4CCOCC4)n3)C2)cc1 (stereo partly drawn) [Example 3.4] | 1040 nM |
| COc1c(OC2CCCC2)ncnc1N1CC[C@@H](Oc2ccc([C@H](C)NC(C)=O)cc2)C1 [Example 7.55] | 69 nM |
| COc1c(OCC(F)F)ncnc1N1CC[C@@H](Oc2ccc([C@H](C)NC(C)=O)cc2)C1 [Example 7.54] | 162 nM |
